In US12439925B2, “Anti-pathogenic activity of a bifunctional peptidoglycan/chitin hydrolase” (Universiteit Antwerpen, priority 2018, dated 2025):
Entries after “also recorded” stand apart in the source; their conditions may differ. Like-named read-outs stand apart in the source and are kept apart here.

Key:
C. albicans = format: cell-based, Candida albicans; conditions: for effect of acids on hyphal formation in C. albicans: compared with lactic acid
Description: (§1) Candida (albicans, dubliensis, and tropicalis) hyphae were induced by incubating 10^6 CFU/ml cells with 10% FCS, for 3 h at 37° C. in the wells of a 24-well plate, in a total volume of 500 μl per repetition and 4 biological repetitions per condition. To investigate the effect of lactobacilli 10^8 CFU/ml L. rhamnosus strains were added to the wells and co-incubated. To investigate the effect of Msp1, 5 μg/ml or 10 μg/ml of purified Msp1 from L. rhamnosus GG or L. rhamnosus GR-1 was added to the wells and co-incubated. To investigate the effect of acids, 100 μl of a 1% lactic acid or 1% butyric acid was added to the wells and co-incubated. After (co-) incubation for 3 h, at least 100 yeast cells and/or hyphae were counted in each well (4 per condition) and the ratio of hyphae to yeast cells was calculated.

C. albicans biofilms = assay: Inhibition of C. albicans biofilm formation (XTT, absorbance 492 nm); format: cell-based, Candida albicans; conditions: 24 h
Description: The inhibiting effects on C. albicans biofilms were assessed. Briefly, C. albicans was grown overnight in YPD medium and suspended to 10^6 CFU/ml and added to the wells of a 96 well plate (80 μl/well), together with the samples (supernatant, lactic acid, Msp1) or controls (MRS or H20). After incubation for 24 h at 37° C., the biofilms were washed twice and then 2,3-bis (2-methoxy-4- nitro-5-sulfophenyl)-2H-tetrazolium-5-carboxanilide (90 μl, 1 mg/ml) (Sigma Aldrich) and phenazine methosulphate (10 μl, 0.2 mg/ml) (Sigma Aldrich) were added to the wells. After a second incubation (37° C., 30 minutes, in the dark), the absorbance at 492 nm was measured using a Synergy™ HTX multi-mode reader (Biotek, Drogenbos, Belgium).

C. tropicalis = assay: Inhibition of FCS-induced hyphal formation in C. tropicalis; format: cell-based, Candida tropicalis; conditions: different concentrations of Msp1
Description: as §1

[1] = Chitinase activity based on breakdown of chitin-azure; format: biochemical; conditions: compared with commercial chitinase from Streptomyces griseus; sodium acetate buffer control
Description: First, the chitinase activity of Msp1 was investigated based on breakdown of chitin-azure (Sigma), as described previously. Further confirmation was based on inhibition of chitinase activity by 2.5 mM Bisdionine C (Sigma), as described previously.

C. dubliensis = assay: Inhibition of FCS-induced hyphal formation in C. dubliensis; format: cell-based, Candida dubliensis; conditions: different concentrations of Msp1
Description: as §1

In the case of `CC(O)C(=O)O` (centres unmarked) [Lactic acid, lactic acid], the “reduction of hyphal morphogenesis” value (C. albicans; 0.5-2% lactic acid, D- and L-lactic acid 1:1) is reported as “reduced hyphal morphogenesis”, the “reduction of hyphal morphogenesis” value (C. albicans; 1% lactic acid (D- and L-lactic acid 1:1)) is reported as “approximately 50%” and the “anti-biofilm activity on C. albicans” value (C. albicans biofilms; lactic acid 0.4%) is reported as “showed anti-biofilm activity”.

For `Cl` [hydrochloric acid], the “effect of acids on hyphal formation in C. albicans” value (C. albicans) was “inhibited hyphae formation significantly”.

In the case of `Cn1cnc2c1c(=O)n(CCCn1c(=O)c3c(ncn3C)n(C)c1=O)c(=O)n2C` [Bisdionine C], the “rescue of C. albicans hyphal morphogenesis from Msp1 inhibition” value (C. albicans; 2.5 mM Bisdionine C in the presence of Msp1) is reported as “partially reversed; also recorded: can prevent hyphal inhibition partially”.

For `CCCC(=O)O` [Butyric acid, butyric acid], the “effect of acids on hyphal formation in C. albicans” value (C. albicans) was “comparable effects”.

B1: Msp1: bifunctional peptidoglycan/chitin hydrolase, major secreted protein 1, purified from L. rhamnosus GG supernatant (protein)
chain: MVDSKKVLSVTAGFVGAAGLAALATGANTVSASTGTVSYKSGATTVWNSPSWHQVKRYVTFGDTVQLLGKTVDQNGATWYKVGDNQWIPELYLNVAGKTATVETPSSAASQTAVSQAPASQAPTSQAPATQTPAAPQTDTQTANTQLYVKNIGSAVTVWTTPAYTHATGQYLEGSQTLTAVAQQQANGETWYRLANGGYVPARFVSTTPVAVTPQPAAPQSNEASVASTNTNAANDSAAASSAAASQAAASSAAASTAAANAAVASANATASQAAASEAAASQAAASQAAASQAAASQAAASQAAASQAAASQAAASQAAASQAAASQAAANAAQQAPANQANVTTTQVNANQAQQQTATATPAVNTSNQTAAVSASRQAKIQAVIAIAEQQVGKPYVWGGKGPNSFDCSGLMYYAFLNGAGVNIGGWTVPQESSGTQVSLSALQPGDLLFWGSHGSTYHVALYIGGGTMIQAPQPGENVKYTALAYFMPDFAVRPSL
modifications: Msp1 protein
notes: bifunctional peptidoglycan/chitin hydrolase, major secreted protein 1, purified from L. rhamnosus GG supernatant
In the case of B1, the “effect on FCS-induced hyphal formation in C. tropicalis” value (C. tropicalis) is reported as “concentration-dependent effect”, the “breakdown of chitin (chitin-azure)” value [1] is reported as “able to break down chitin, to the same extent as a commercially available chitinase; also recorded: can break down chitin derivative, chitin-azure” and the “reduction of hyphal morphogenesis” value (C. albicans; concentrations as low as 5 μg/mL) is reported as “more than 50%”. The “anti-biofilm activity on C. albicans” value (C. albicans biofilms; Msp1 10 μg/mL) was “showed anti-biofilm activity” and the “effect on FCS-induced hyphal formation in C. dubliensis” value (C. dubliensis) was “concentration-dependent effect”.
